In patent US8076142B2, “Rooted plant assay system” (BASF Plant Sciences GmbH, priority 2006, dated 2011):

Test system: soybean explants
Assay: Auxin effect on transformation efficiency in soybean explants (disarmed A. rhizogenes, root induction and selection medium)
Type: cell-based
Details: for transformation efficiency compared to control with no auxin: cotyledons from William 82 as explants
Experimental: Clean soybean seeds from soybean cultivar were sterilized in a chamber with chlorine gas produced by adding 3.5 ml 12N HCl drop wise into 100 ml bleach. All operations were conducted in a fume hood. After 24 hours in the chamber, seeds were removed and used immediately or stored at room temperature until use. Discolored seeds or cracked seeds were removed. To imbibe seeds, warm GM medium was poured around seeds until the seeds were entirely covered by the medium. Seedlings were grown in the light for 5-7 days until the epicotyl was extended beyond the cotyledons. Seedlings can be stored at 4° C. overnight before being used in transformation. The Germination Medium (GM) comprises: 1×B5 salts and vitamins, 1×MS iron stock, 2% sucrose, and 0.8% Noble agar at pH 5.8. As an alternative, soybean seeds can be germinated in 1% agar (50 ml) in Petri dishes for 7 days before Agrobacterium inoculation.
Three days before inoculation, a disarmed Agrobacterium culture, for example, the disarmed A. rhizogenes strain K599 liquid culture, was placed in 5 ml LB+Kan50 (containing 50 ug/ml Kanamycin) media in a 28° C. shaker (225 rpm) overnight. The next day, 1 ml of the culture was taken and spread onto an LB+Kan50 agar plate. The plates were incubated in a 28° C. incubator for two days. At the end of the two-day period the plates were covered with thick colonies. One plate was prepared for every 50 explants to be inoculated.
Soybean seedlings had elongated hypocotyls approximately 3 to 5 cm in length with visible epicotyls. The explants were then prepared by removing the epicotyls and part of the hypocotyls. The explant contained one or two cotyledons, an axillary meristem and the hypocotyl about 0.5 cm to about 3 cm in length. The seed coat was removed to facilitate cotyledon development. The cut end of the hypocotyl was the target for transformation/infection.
Alternatively, cotyledons containing the proximal end from its connection with the seedlings were used as another type of explant for transformation. The cut end was the target for Agrobacterium inoculation.
After the explants were cut off the seedlings, the cut end was immediately dipped onto the disarmed thick A. rhizogenes colonies prepared above so that the colonies were visible on the cut end. Alternatively, the explants can be immersed in the disarmed A. rhizogenes liquid culture for 30 minutes. The explants were then placed onto 1% agar in Petri dishes for co-cultivation. Approximately 10 explants were placed in one dish. The dishes were sealed with Saran wrap and co-cultured at 25-27° C. under light for 6-8 days.
After the transformation and co-cultivation step, soybean explants were transferred to rooting induction medium with a selection agent, for example, S-B5-605 or S-B5-607 for Bar gene selection (De Block et al., EMBO J. 6:2513-2518, 1987), or S-B5-708 for an AHAS mutant gene (Sathasivan et al., Plant Phys. 97:1044-50, 1991) selection, in Petri dishes. The cut end was inserted into the medium so that the callus developed from the cut end in the future was just below the medium surface. Six to nine explants were placed in each Petri dish. Cultures were maintained in the same condition as in the co-cultivation step.
The S-B5-605 medium comprises: 0.5×B5 salts, 3 mM MES, 2% sucrose, 1×B5 vitamins, 400 μg/ml Timentin, 0.8% Noble agar, 1 mg/1 IBA and 3 μg/ml Glufosinate Ammonion (selection agent for Bar gene) at pH 5.8. The S-MS-607 medium comprises: 0.2×MS salts and B5 vitamins, 2% sucrose, 400 mg/l Timentin, and 3 mg/L Glufosinate Ammonium at pH5.8. The S-B5-708 medium comprises: 0.5×B5 salts, 3 mM MES, 2% sucrose, 1×B5 vitamins, 400 μg/ml Timentin, 0.8% Noble agar, and 1 μM Imazapyr (selection agent for AHAS gene) (BASF Corporation, Florham Park, N.J.) at pH5.8.
Two to three weeks after the selection and root induction, transformed roots were formed on the cut ends of the explants. […]

O=C(O)CCCc1c[nH]c2ccccc12 [IBA, indole-3-butyric acid]
transgenic roots obtained from hypocotyl explants (control, 0-1 mg/l IBA in the rooting induction and selection medium): 1-5
transformation efficiency compared to control with no auxin (3 mg/l IBA): doubled
transformation efficiency (high concentration of IBA, 3 to 5 mg/l, in the medium): dramatically increased
transformation efficiency (soybean hypocotyl and cotyledon explants, medium with 1 mg/l IBA compared to no auxin): similar

O=C(O)Cc1cccc2ccccc12 [NAA, napthalene acetic acid]
transformation efficiency (NAA 1 mg/l in the medium): dramatically increased
transformation efficiency compared to control with no auxin (1 mg/l NAA): doubled
transgenic roots obtained from hypocotyl explants (infected explants cultured and selected in medium containing 1 mg/l NAA): more than 20
